Test results as given in patent US6451736B1, “Substituted aromatic thiocarboxylic acid amides and their use as herbicides” (Bayer Aktiengesellschaft, priority 1994, dated 2002).

Assays:
Assay type in all cases: in vivo
[1] = tested on: Amaranthus; experiment: Post-emergence test/greenhouse; conditions: Table C, after three weeks
Protocol: (§1) To produce a suitable preparation of active compound, 1 part by weight of active compound is mixed with the stated amount of solvent, the stated amount of emulsifier is added and the concentrate is diluted with water to the desired concentration.
(§2) Test plants which have a height of 5-15 cm are sprayed with the preparation of active compound in such a way as to apply the particular amounts of active compound desired per unit area. After three weeks, the degree of damage to the plants is rated in % damage in comparison to the development of the untreated control.
(§3) 0%=no action (like intreated control)

[2] = tested on: Wheat; experiment: Post-emergence test/greenhouse; conditions: Table C, after three weeks
Protocol: as §1, §2, §3

[3] = tested on: Solanum; experiment: Post-emergence test/greenhouse; conditions: Table C, after three weeks
Protocol: as §1, §2, §3

[4] = tested on: Abuthilon; experiment: Post-emergence test/greenhouse; conditions: Table C, after three weeks
Protocol: as §1, §2, §3

[5] = tested on: Chenopodium; experiment: Post-emergence test/greenhouse; conditions: Table C, after three weeks
Protocol: as §1, §2, §3

[6] = tested on: Maize; experiment: Post-emergence test/greenhouse; conditions: Table C, after three weeks
Protocol: as §1, §2, §3

[7] = tested on: Veronica; experiment: Post-emergence test/greenhouse; conditions: Table C, after three weeks
Protocol: as §1, §2, §3

[8] = tested on: Amaranthus; experiment: Pre-emergence test/greenhouse; conditions: after three weeks
Protocol: as §1
(§4) Seeds of the test plants are sown in normal soil and, after 24 hours, watered with the preparation of active compound. It is expedient to keep constant the amount of water per unit area. The concentration of the active compound in the preparation is of no importance, only the amount of active compound applied per unit area being decisive. After three weeks, the degree of damage to the plants is rated in % damage in comparison to the development of the untreated control. The figures denote:
(§5) 0%=no action (like untreated control)

[9] = tested on: Wheat; experiment: Pre-emergence test/greenhouse; conditions: Table B, after three weeks
Protocol: as §1, §4, §5

[10] = tested on: Solanum; experiment: Pre-emergence test/greenhouse; conditions: after three weeks
Protocol: as §1, §4, §5

[11] = tested on: Abuthilon; experiment: Pre-emergence test/greenhouse; conditions: Table B, after three weeks
Protocol: as §1, §4, §5

[12] = tested on: Chenopodium; experiment: Pre-emergence test/greenhouse; conditions: after three weeks
Protocol: as §1, §4, §5

[13] = tested on: Maize; experiment: Pre-emergence test/greenhouse; conditions: after three weeks
Protocol: as §1, §4, §5

[14] = tested on: Matricaria; experiment: Pre-emergence test/greenhouse; conditions: after three weeks
Protocol: as §1, §4, §5

[15] = tested on: Barley; experiment: Pre-emergence test/greenhouse; conditions: Table A, 125 g/ha, after three weeks
Protocol: as §1, §4, §5

[16] = tested on: Portulaca; experiment: Pre-emergence test/greenhouse; conditions: after three weeks
Protocol: as §1, §4, §5

CCS(=O)(=O)Nc1cc(-n2nc(C(F)F)n(C)c2=S)c(F)cc1C(N)=S [Example 3, 2-(2-fluoro-4-thiocarbamoyl-5-ethylsulphonylaminophenyl)-4-methyl-5-difluoromethyl-2,4-dihydro-3H-1,2,4-triazole-3-thione]
100%: degree of damage, Amaranthus ([1]; 30 g/ha) | degree of damage, Solanum ([3]; 30 g/ha) | degree of damage, Abuthilon ([4]; 30 g/ha) | degree of damage, Chenopodium ([5]; 30 g/ha) | degree of damage, Veronica ([7]; 30 g/ha) | degree of damage, Amaranthus ([8]; Table A, 125 g/ha) | degree of damage, Amaranthus ([8]; Table B, 60 g/ha) | degree of damage, Solanum ([10]; Table A, 125 g/ha) | degree of damage, Solanum ([10]; Table B, 60 g/ha) | degree of damage, Abuthilon ([11]; 60 g/ha) | degree of damage, Chenopodium ([12]; Table A, 125 g/ha) | degree of damage, Chenopodium ([12]; Table B, 60 g/ha) | degree of damage, Matricaria ([14]; Table A, 125 g/ha) | degree of damage, Matricaria ([14]; Table B, 60 g/ha) | degree of damage, Portulaca ([16]; Table A, 125 g/ha) | degree of damage, Portulaca ([16]; Table B, 60 g/ha)
10%: degree of damage, Wheat ([2]; 30 g/ha)
0%: degree of damage, Wheat ([9]; 60 g/ha) | degree of damage, Maize ([13]; Table A, 125 g/ha) | degree of damage, Maize ([13]; Table B, 60 g/ha) | degree of damage, Barley [15]
30%: degree of damage, Maize ([6]; 30 g/ha)

CCn1c(C(F)(F)F)nn(-c2cc(NS(=O)(=O)CC)c(C(N)=S)cc2F)c1=O [Example 5]
0%: degree of damage, Wheat ([9]; 125 g/ha) | degree of damage, Maize ([13]; Table A, 125 g/ha) | degree of damage, Maize ([13]; Table B, 125 g/ha) | degree of damage, Barley [15]
10%: degree of damage, Wheat ([2]; 15 g/ha) | degree of damage, Abuthilon ([11]; 125 g/ha)
100%: degree of damage, Amaranthus ([1]; 15 g/ha) | degree of damage, Solanum ([3]; 15 g/ha) | degree of damage, Abuthilon ([4]; 15 g/ha) | degree of damage, Chenopodium ([5]; 15 g/ha) | degree of damage, Veronica ([7]; 15 g/ha) | degree of damage, Amaranthus ([8]; Table A, 125 g/ha) | degree of damage, Amaranthus ([8]; Table B, 125 g/ha) | degree of damage, Solanum ([10]; Table A, 125 g/ha) | degree of damage, Solanum ([10]; Table B, 125 g/ha) | degree of damage, Chenopodium ([12]; Table A, 125 g/ha) | degree of damage, Chenopodium ([12]; Table B, 125 g/ha)
90%: degree of damage, Matricaria ([14]; Table A, 125 g/ha) | degree of damage, Portulaca ([16]; Table A, 125 g/ha) | degree of damage, Portulaca ([16]; Table B, 125 g/ha)
70%: degree of damage, Matricaria ([14]; Table B, 125 g/ha)
20%: degree of damage, Maize ([6]; 15 g/ha)

C#CC(C)Oc1cc(-n2nc(C(F)F)n(C)c2=S)c(F)cc1C(N)=S (stereo not shown) [Example 6]
50%: degree of damage, Maize ([6]; 8 g/ha)
100%: degree of damage, Amaranthus ([1]; 8 g/ha) | degree of damage, Solanum ([3]; 8 g/ha) | degree of damage, Abuthilon ([4]; 8 g/ha) | degree of damage, Chenopodium ([5]; 8 g/ha) | degree of damage, Amaranthus ([8]; Table A, 125 g/ha) | degree of damage, Amaranthus ([8]; Table B, 60 g/ha) | degree of damage, Solanum ([10]; Table A, 125 g/ha) | degree of damage, Abuthilon ([11]; 60 g/ha) | degree of damage, Chenopodium ([12]; Table A, 125 g/ha) | degree of damage, Chenopodium ([12]; Table B, 60 g/ha) | degree of damage, Matricaria ([14]; Table B, 60 g/ha) | degree of damage, Portulaca ([16]; Table A, 125 g/ha) | degree of damage, Portulaca ([16]; Table B, 60 g/ha)
30%: degree of damage, Wheat ([2]; 8 g/ha) | degree of damage, Maize ([13]; Table A, 125 g/ha) | degree of damage, Maize ([13]; Table B, 60 g/ha)
95%: degree of damage, Veronica ([7]; 8 g/ha) | degree of damage, Solanum ([10]; Table B, 60 g/ha) | degree of damage, Matricaria ([14]; Table A, 125 g/ha)
20%: degree of damage, Wheat ([9]; 60 g/ha)
0%: degree of damage, Barley [15]

CCN(CC)CC.CCS(=O)(=O)Nc1cc(-n2nc(C)n(NC)c2=O)c(F)cc1C(N)=S [Example 7]
30%: degree of damage, Barley [15]
10%: degree of damage, Wheat ([2]; 60 g/ha)
50%: degree of damage, Maize ([6]; 60 g/ha) | degree of damage, Wheat ([9]; 125 g/ha)
95%: degree of damage, Chenopodium ([5]; 60 g/ha) | degree of damage, Veronica ([7]; 60 g/ha) | degree of damage, Solanum ([10]; Table A, 125 g/ha) | degree of damage, Solanum ([10]; Table B, 125 g/ha) | degree of damage, Abuthilon ([11]; 125 g/ha) | degree of damage, Matricaria ([14]; Table A, 125 g/ha) | degree of damage, Matricaria ([14]; Table B, 125 g/ha)
0%: degree of damage, Maize ([13]; Table A, 125 g/ha) | degree of damage, Maize ([13]; Table B, 125 g/ha)
100%: degree of damage, Amaranthus ([1]; 60 g/ha) | degree of damage, Solanum ([3]; 60 g/ha) | degree of damage, Abuthilon ([4]; 60 g/ha) | degree of damage, Amaranthus ([8]; Table A, 125 g/ha) | degree of damage, Amaranthus ([8]; Table B, 125 g/ha) | degree of damage, Chenopodium ([12]; Table A, 125 g/ha) | degree of damage, Chenopodium ([12]; Table B, 125 g/ha) | degree of damage, Portulaca ([16]; Table A, 125 g/ha) | degree of damage, Portulaca ([16]; Table B, 125 g/ha)

CCS(=O)(=O)Nc1cc(-n2nc(C(F)(F)F)n(C)c2=S)c(F)cc1C(N)=S [Example 31]
90%: degree of damage, Chenopodium ([5]; 8 g/ha)
100%: degree of damage, Amaranthus ([1]; 8 g/ha) | degree of damage, Solanum ([3]; 8 g/ha) | degree of damage, Abuthilon ([4]; 8 g/ha) | degree of damage, Veronica ([7]; 8 g/ha) | degree of damage, Amaranthus ([8]; Table B, 60 g/ha) | degree of damage, Solanum ([10]; Table B, 60 g/ha) | degree of damage, Abuthilon ([11]; 60 g/ha) | degree of damage, Chenopodium ([12]; Table B, 60 g/ha) | degree of damage, Matricaria ([14]; Table B, 60 g/ha) | degree of damage, Portulaca ([16]; Table B, 60 g/ha)
70%: degree of damage, Maize ([6]; 8 g/ha)
0%: degree of damage, Wheat ([2]; 8 g/ha) | degree of damage, Wheat ([9]; 60 g/ha) | degree of damage, Maize ([13]; Table B, 60 g/ha)

Cn1c(C(F)(F)F)nn(-c2cc(NS(C)(=O)=O)c(C(N)=S)cc2F)c1=S [Example 34]
0%: degree of damage, Wheat ([2]; 15 g/ha) | degree of damage, Wheat ([9]; 60 g/ha) | degree of damage, Maize ([13]; Table B, 60 g/ha)
30%: degree of damage, Maize ([6]; 15 g/ha)
100%: degree of damage, Amaranthus ([1]; 15 g/ha) | degree of damage, Solanum ([3]; 15 g/ha) | degree of damage, Abuthilon ([4]; 15 g/ha) | degree of damage, Chenopodium ([5]; 15 g/ha) | degree of damage, Veronica ([7]; 15 g/ha) | degree of damage, Amaranthus ([8]; Table B, 60 g/ha) | degree of damage, Solanum ([10]; Table B, 60 g/ha) | degree of damage, Abuthilon ([11]; 60 g/ha) | degree of damage, Chenopodium ([12]; Table B, 60 g/ha) | degree of damage, Matricaria ([14]; Table B, 60 g/ha) | degree of damage, Portulaca ([16]; Table B, 60 g/ha)

CC(C)Oc1cc(N2C(=O)C3CCCCN3C2=O)c(F)cc1C(N)=S (stereo not shown) [Example 46]
15%: degree of damage, Wheat ([2]; 8 g/ha)
20%: degree of damage, Maize ([6]; 8 g/ha)
70%: degree of damage, Maize ([13]; Table B, 60 g/ha)
0%: degree of damage, Wheat ([9]; 60 g/ha)
100%: degree of damage, Amaranthus ([1]; 8 g/ha) | degree of damage, Solanum ([3]; 8 g/ha) | degree of damage, Abuthilon ([4]; 8 g/ha) | degree of damage, Veronica ([7]; 8 g/ha) | degree of damage, Amaranthus ([8]; Table B, 60 g/ha) | degree of damage, Solanum ([10]; Table B, 60 g/ha) | degree of damage, Abuthilon ([11]; 60 g/ha) | degree of damage, Chenopodium ([12]; Table B, 60 g/ha) | degree of damage, Matricaria ([14]; Table B, 60 g/ha) | degree of damage, Portulaca ([16]; Table B, 60 g/ha)
95%: degree of damage, Chenopodium ([5]; 8 g/ha)

CCOc1cc(N2C(=O)C3CCCCN3C2=O)c(F)cc1C(N)=S (stereo not shown) [Example 47]
10%: degree of damage, Wheat ([2]; 8 g/ha) | degree of damage, Maize ([6]; 8 g/ha)
95%: degree of damage, Chenopodium ([5]; 8 g/ha) | degree of damage, Amaranthus ([8]; Table B, 30 g/ha)
0%: degree of damage, Wheat ([9]; 30 g/ha) | degree of damage, Maize ([13]; Table B, 30 g/ha)
100%: degree of damage, Amaranthus ([1]; 8 g/ha) | degree of damage, Solanum ([3]; 8 g/ha) | degree of damage, Abuthilon ([4]; 8 g/ha) | degree of damage, Veronica ([7]; 8 g/ha) | degree of damage, Solanum ([10]; Table B, 30 g/ha) | degree of damage, Abuthilon ([11]; 30 g/ha) | degree of damage, Chenopodium ([12]; Table B, 30 g/ha) | degree of damage, Matricaria ([14]; Table B, 30 g/ha) | degree of damage, Portulaca ([16]; Table B, 30 g/ha)
